Experimental findings from PubChem BioAssay (NCI) are described below.

The structures appear in SMILES notation.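 1) Cells in 96-well plates. 2) Compound, 48 h, 5 concentrations. 3) Linear interpolation between surrounding doses. 4) Unreached endpoint = highest concentration. The concentration for 50% growth inhibition is given as GI50. TGI: concentration producing complete growth inhibition.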 Some results are limits rather than exact numbers.

By GI50 is commonly meant the concentration that inhibits growth by half. One may read the TGI as the concentration giving total growth inhibition. A lower TGI goes with greater sensitivity of the cells.

Among the test systems are A549 NSCLC; EKVX NSCLC; HCT-15 colon; NCI-H23 lung; OVCAR-4 ovarian; OVCAR-5 ovarian; RXF 393 renal; SK-MEL-28 melanoma; SNB-19 CNS; UACC-257 melanoma.
What all share (experiment): DTP human tumour cell line panel, 48 h

As for `Cc1cccc(-c2[nH]ncc2-c2ccc3ncccc3n2)n1`, the GI50 with A549 NSCLC is 9.27 µM; in the experiment with EKVX NSCLC, above 20.7 µM; in the experiment with HCT-15 colon it was 9.98 µM; in the experiment on NCI-H23 lung, 14.2 µM; with OVCAR-4 ovarian, above 22.4 µM; in the experiment on OVCAR-5 ovarian, 9.82 µM. In addition, the GI50 in the experiment with RXF 393 renal was 5.87 µM; in the experiment on SK-MEL-28 melanoma, 13.3 µM; with SNB-19 CNS, 13.2 µM; in the experiment on UACC-257 melanoma, above 21.3 µM. Besides, the TGI with A549 NSCLC, in the experiment on EKVX NSCLC, with HCT-15 colon, in the experiment with NCI-H23 lung, with OVCAR-4 ovarian and in the experiment with OVCAR-5 ovarian was above 25 µM each time. Besides, the TGI is 12.7 µM with RXF 393 renal, above 25 µM in the experiment on SK-MEL-28 melanoma, above 25 µM in the experiment on SNB-19 CNS and above 25 µM with UACC-257 melanoma.

On to `CC(=O)Nc1ccc(/C=c2\sc3nnc(CCC(=O)Nc4ccccc4Cl)n3c2=O)cc1`, for which the TGI in the experiment on A549 NSCLC was above 100 µM; in the experiment on EKVX NSCLC, above 100 µM; in the experiment on HCT-15 colon it was above 100 µM; in the experiment on NCI-H23 lung, above 100 µM; with OVCAR-4 ovarian, 43 µM; with OVCAR-5 ovarian it was above 100 µM. Further, the TGI is 58.7 µM in the experiment on RXF 393 renal, 56.5 µM in the experiment on SK-MEL-28 melanoma, above 100 µM in the experiment with SNB-19 CNS and above 10 µM with UACC-257 melanoma.

Take `Nc1ccccc1NC(=O)c1ccc(CNc2nccc(-c3cccnc3)n2)cc1`: the GI50 in the experiment on A549 NSCLC was 1.35 µM; in the experiment on EKVX NSCLC, 1.36 µM; in the experiment on HCT-15 colon, 2.06 µM; in the experiment on NCI-H23 lung, 1.4 µM; in the experiment with OVCAR-4 ovarian, 1.43 µM; in the experiment on OVCAR-5 ovarian, 0.55 µM. The GI50 with RXF 393 renal is 0.878 µM; in the experiment with SK-MEL-28 melanoma, 0.691 µM; in the experiment on SNB-19 CNS, 3.49 µM; with UACC-257 melanoma, 0.73 µM. Further, the TGI with A549 NSCLC was above 47.6 µM; in the experiment with EKVX NSCLC it was above 59.1 µM; in the experiment on HCT-15 colon, above 44.1 µM; in the experiment with NCI-H23 lung, above 68.1 µM; with OVCAR-4 ovarian it was above 28.3 µM; in the experiment on OVCAR-5 ovarian it was above 48 µM. Also, the TGI in the experiment with RXF 393 renal is 3.01 µM; with SK-MEL-28 melanoma it was 3.15 µM; with SNB-19 CNS it was above 100 µM.

With `C=C(C)[C@@H]1CC[C@]2(COCCC#N)CC[C@]3(C)[C@H](CC[C@@H]4[C@@](C)(CCCNCCC#N)[C@H](C(=C)C)CC[C@]43C)[C@@H]12`, the GI50 with A549 NSCLC was 34.4 µM; in the experiment on EKVX NSCLC it was 46.9 µM; with HCT-15 colon it was 7.66 µM; in the experiment with NCI-H23 lung it was 16.5 µM; in the experiment on OVCAR-4 ovarian it was 18 µM; in the experiment on OVCAR-5 ovarian it was 13.4 µM. The GI50 in the experiment with RXF 393 renal is 7.44 µM; in the experiment on SK-MEL-28 melanoma it was 9.26 µM; in the experiment on SNB-19 CNS it was 26.4 µM; with UACC-257 melanoma it was 19.8 µM. Moreover, the TGI in the experiment on A549 NSCLC was above 50 µM; in the experiment with EKVX NSCLC, above 50 µM; with HCT-15 colon, 16.6 µM; with NCI-H23 lung it was above 50 µM; with OVCAR-4 ovarian it was above 50 µM; in the experiment on OVCAR-5 ovarian, 44.1 µM. Moreover, the TGI is 14.5 µM with RXF 393 renal, 18 µM with SK-MEL-28 melanoma, above 50 µM in the experiment on SNB-19 CNS and above 50 µM with UACC-257 melanoma.

For `COc1ccc(C(CCC(C)=O)C(=O)O)cc1OC` (centres undefined), the TGI with A549 NSCLC, in the experiment with EKVX NSCLC, with HCT-15 colon, with NCI-H23 lung, in the experiment on OVCAR-4 ovarian and in the experiment with OVCAR-5 ovarian was above 100 µM in each case. Further, the TGI in the experiment on RXF 393 renal, with SK-MEL-28 melanoma, in the experiment on SNB-19 CNS and with UACC-257 melanoma was above 100 µM in each case.

Turning to `CCN(CC)CC(C)(C)C(=O)/C=C/c1cccc(/C=C/C(=O)C(C)(C)CN(CC)CC)c1`, the TGI came to 2.67 µM in the experiment on A549 NSCLC; 2.53 µM in the experiment on EKVX NSCLC; 2.37 µM in the experiment on HCT-15 colon; 2.7 µM in the experiment on NCI-H23 lung; 1.41 µM with OVCAR-4 ovarian; 2.98 µM in the experiment with OVCAR-5 ovarian. The TGI in the experiment with RXF 393 renal was determined as 1.49 µM; with SK-MEL-28 melanoma, 2.75 µM; with SNB-19 CNS, 3.89 µM; in the experiment with UACC-257 melanoma it was 2.66 µM.

As to `CCOC(=O)c1ccccc1OC(=O)NNc1ccccc1`, the GI50 in the experiment on A549 NSCLC is 0.874 µM; in the experiment with EKVX NSCLC, 6.07 µM; in the experiment with HCT-15 colon, 0.862 µM; in the experiment with NCI-H23 lung it was 30.3 µM; in the experiment on OVCAR-4 ovarian it was 15.2 µM; in the experiment on OVCAR-5 ovarian it was 5.34 µM. Further, the GI50 with RXF 393 renal is above 100 µM; in the experiment with SK-MEL-28 melanoma, above 59.6 µM; in the experiment with SNB-19 CNS, above 51.6 µM; with UACC-257 melanoma it was 5.61 µM. Also, the TGI with A549 NSCLC, in the experiment with EKVX NSCLC, with HCT-15 colon, in the experiment on NCI-H23 lung, in the experiment on OVCAR-4 ovarian and in the experiment with OVCAR-5 ovarian was above 100 µM each time. For the same molecule, the TGI in the experiment on RXF 393 renal, in the experiment on SK-MEL-28 melanoma, with SNB-19 CNS and in the experiment with UACC-257 melanoma was above 100 µM each time.

With `CCC(CC)c1nc(Nc2ccc(C(=O)OC)cc2)c2ccccc2n1`, the GI50 was 10.2 µM with A549 NSCLC; 15.9 µM in the experiment on EKVX NSCLC; 11 µM in the experiment on HCT-15 colon; 15.5 µM in the experiment with NCI-H23 lung; 7.45 µM with OVCAR-4 ovarian; 17.9 µM in the experiment on OVCAR-5 ovarian. Moreover, the GI50 is 8.34 µM in the experiment with RXF 393 renal, 7.1 µM in the experiment on SK-MEL-28 melanoma, 8.07 µM in the experiment with SNB-19 CNS and 9.73 µM in the experiment with UACC-257 melanoma. Further, the TGI was 27.2 µM with A549 NSCLC; above 29.4 µM in the experiment with EKVX NSCLC; above 33.1 µM with HCT-15 colon; above 37.4 µM in the experiment with NCI-H23 lung; 18.6 µM with OVCAR-4 ovarian; above 50 µM with OVCAR-5 ovarian. The TGI with RXF 393 renal is 21.3 µM; in the experiment on SK-MEL-28 melanoma, 15.3 µM; with SNB-19 CNS it was 15.2 µM; with UACC-257 melanoma, 20 µM.

As for `CCOC(=O)[C@@H](C)C[C@H](Cc1ccccc1)NC(=O)c1nc([C@@H](C[C@H](C(C)C)N(C)C(=O)[C@@H](NC(=O)[C@H]2CCCCN2C)C(C)C)OC(C)=O)sc1CCOCc1ccccc1`, the GI50 was 0.101 µM in the experiment with A549 NSCLC; 0.314 µM in the experiment on EKVX NSCLC; 0.262 µM in the experiment with HCT-15 colon; 0.188 µM in the experiment with NCI-H23 lung; 0.222 µM with OVCAR-4 ovarian; 0.246 µM in the experiment on OVCAR-5 ovarian. Moreover, the GI50 in the experiment on RXF 393 renal was 0.0657 µM; with SK-MEL-28 melanoma, 0.54 µM; with SNB-19 CNS it was 0.0926 µM; with UACC-257 melanoma, 1.51 µM. The TGI in the experiment with A549 NSCLC was 2.17 µM; in the experiment with EKVX NSCLC it was above 11.1 µM; in the experiment on HCT-15 colon, 1.51 µM; in the experiment with NCI-H23 lung it was 5.6 µM; in the experiment with OVCAR-4 ovarian, above 11.1 µM; in the experiment on OVCAR-5 ovarian it was 4.11 µM. The TGI in the experiment with RXF 393 renal is 1.53 µM; in the experiment on SK-MEL-28 melanoma, 2.72 µM; with SNB-19 CNS, 4.34 µM; in the experiment with UACC-257 melanoma, 4.19 µM.
